Source: US20070010484A1, “Method for treating or inhibiting the effects of injuries or diseases that result in neuronal degeneration and method for promoting neurogenesis” (YEDA RESEARCH AND DEVELOPMENT CO. LTD., priority 2003, published 2007)

Experiments:
[1] = test system: retinal ganglion cells (RGCs); experiment: Chronically high intra-ocular pressure (laser-induced glaucoma) rat model, RGC survival; assay type: in vivo, Lewis rats; settings: chronic IOP rats
From the text: Induction of chronically high intra-ocular pressure: Blockage of aqueous outflow causes an increase in IOP, which results in RGC death (Schori et al., 2001 and Bakalash et al., 2002). […] The laser beam, which was directed at three of the four episcleral veins and at 270 degrees of the limbal plexus, was applied with a power of 1 watt for 0.2 s, producing a spot size of […] at the episcleral veins and […] at the limbal plexus. At a second laser session 1 week later, the same parameters were used except that the spot size was […] for all applications, this time the radiation was directed towards all four episcleral veins and 360 degrees of the limbal plexus (Schori et al., 2001).
Anatomical assessment of retinal damage caused by the increase in IOP: The hydrophilic neurotracer dye dextran tetramethylrhodamine (Rhodamine Dextran) (Molecular Probes, Oreg., USA) was applied directly into the intra-orbital portion of the optic nerve. […] RGCs were counted under magnification of ×800 in a Zeiss fluorescent microscope. Four fields from each retina were counted, all with the same diameter (0.076 mm^2) and located at the same distance from the optic disc (Kipnis et al., 2001; and Yoles et al., 2001). […] RGCs were counted by an observer who was blinded to the identity of the retinas. […]

PC12 cells = experiment: Neurite outgrowth assay in NGF-stimulated PC12 cells; assay type: cell-based, rat; settings: PC12 cells on collagen, NGF 10 ng/ml, sulfated CSPG-DSs added; mean±SD
Protocol: PC12 cell line: Rat pheochromocytoma (PC12) cells were cultured in DMEM containing 8% horse serum and either 8% FCS (culture medium) or 1% FCS (differentiation medium), and antibiotics. For assays of neurite outgrowth, the cells were plated (10^5 cell/well) on 13-mm glass coverslips, precoated with collagen (500 μg/ml) in 24-well plates. Neurite outgrowth assays: PC12 cells were cultured for 24-72 h while being stimulated with 10 ng/ml NGF, with or without CSPG-DSs. Cell morphology was visualized under a phase-contrast microscope and neurite lengths were measured using ImagePro. At least 200 cells were measured for each condition.

SOCS-3 = experiment: Western blot of SOCS-3 in T cells; assay type: cell-based, human; settings: T cells pretreated with CSPG-DS, relative to untreated T cells
Protocol: Western blot analysis of T-cell nuclear extracts. Purified T cells (5×10^6) were preincubated for 2 h with different concentrations of CSPG-DS. The cells were then replated at the same CSPG-DS concentration on 24-well plates pre-coated for 24 h with anti-CD3 mAb. The T cells were lysed in 10 mM HEPES, 1.5 mM MgCl2, 1 mM dithiothreitol, 1 mM PMSF, and 0.5% Nonidet P-40 (buffer A). The lysates were incubated on ice for 10 min and centrifuged at 2000 rpm for 10 min at 4° C. The supernatants (cytoplasmic extracts) were transferred and the pellets (nuclei) were suspended in buffer containing 30 mM HEPES, 450 mM NaCl, 25% glycerol, 0.5 mM EDTA, 6 mM dithiothreitol, 12 mM MgCl2 1 mM PMSF, 10 μg/ml leupeptin, 10 μg/ml pepstatin, and 1% phosphatase inhibitor cocktail (buffer B), and the suspension was incubated on ice for 30 min. The lysates were cleared by centrifugation (30 min, 14×10^3 rpm, 4° C.), and the resulting supernatants were analyzed for protein content. Sample buffer was added, the mixture was boiled, and the samples containing equal amounts of proteins were separated on 10% SDS-PAGE gel and transferred to nitrocellulose membranes. […]

[2] = test system: retinal ganglion cells (RGCs)
Protocol: Glutamate-induced toxicity: C57Bl/6J mice were anesthetized by intraperitoneal (i.p.) injection of ketamine (80 mg/kg; Fort Dodge Laboratories, Fort Dodge, Iowa) and xylazine (16 mg/kg; Vitamed, Israel). Their right eyes were punctured with a 27 gauge needle in the upper part of the sclera and a hamilton syringe with a 30-gauge needle was inserted as far as the vitreal body. Each mouse was injected with a total volume of 1 μl saline containing L-glutamate (100 nmol). Mice in one group were also injected intravenously (i.v.) with 5 μg of CSPG-DSs in 200 μl saline (Schori, 2001).
Labeling of retinal ganglion cells: Mice were anesthetized as described above and placed in a stereotactic device. The skull was exposed and the bregma identified and marked. […] A window was drilled in the scalp above the designated coordinates in the right and left hemispheres. […]
Assessment of retinal ganglion cell survival: Retinas were examined for labeled retinal ganglion cells (RGCs) by fluorescence microscopy. Labeled cells from four to six fields of identical size (0.076 mm^2) were counted. […] Cells were counted under the fluorescence microscope (magnification ×800) by observers blinded to the treatment received by the mice. The average number of RGCs per field was calculated for each retina. The number of RGCs in the contralateral (uninjured) eye was also counted and served as an internal control.

Compound: CC(=O)N[C@H]1C(O)O[C@H](COS(=O)(=O)O)[C@H](O)[C@@H]1O[C@@H]1OC(C(=O)O)=C[C@H](O)[C@H]1O (stereo partly drawn) [CSPG-DS, 2-acetoamido-2-deoxy-3-O-(β-D-gluco-4-enepyranosyluronic acid)-6-O-sulfo-D-galactose]
- viable RGCs per mm^2 ([1]; eye drops 20 μg/ml (5 x 50 μl), every other day between day 7 and day 14, counted at three weeks, n=6): 1924±191 RGCs per mm^2
- viable RGCs per mm^2 ([1]; intravenous, every other day between day 7 and day 14 after first laser session, n=5): 2063±215 RGCs per mm^2
- mean neurite length (PC12 cells): 107±7.8 μm
- SOCS-3 level (SOCS-3): increase
- neuronal survival in the absence of glutamate ([2]; intravitreal injection of CSPG-DSs, no glutamate): no effect
- number of surviving RGCs per mm2 ([2]; mice, intravitreal toxic glutamate, single i.v. injection of sulfated CSPG-DSs (5 μg), assessed 1 week later, mean±SEM): 1965±166 per mm2
